“Also recorded” adds a separate entry of the source.
Experiments:
[1] = tested on: PDE4D7-knockdown LNCaP P1 cells; test: xCELLigence real-time proliferation of PDE4D7-knockdown P1 LNCaP cells; assay type: cell-based
Excerpt: Stable shRNA-mediated lentiviral transduced LNCaP cell lines were generated by AMSBIO (Table 1). Briefly, shRNA-PDE4D7 was cloned into a lentivector and delivered into LNCaP clone FGC cells (ATCC) via lentivirus (MOI=10). Cells were maintained in puromycin-supplemented medium prior to selection of stably transduced cells. A stable shRNA-PDE4D7 LNCaP cell line was then re-transduced with lentivirus delivering PDE4D7 to generate a re-introduced cell line. Scrambled-shRNA was used as a control. All cells were cultured in RPMI 1640 medium (Gibco D), supplemented with 10% (v/v) foetal bovine serum, 1% (v/v) L-Glutamine and 1% (v/v) penicillin/streptomycin, and stored within a 37 °C incubator with 5% CO2.
(§1) xCELLigence Real-Time Cell Analysis (RTCA)
(§2) Real-time cell growth was analysed using the xCELLigence RTCA system (Agilent), which measures real-time cell adhesion across gold microelectrode biosensors on 96 well electronic plates (E-plates) within a 37 °C incubator with 5% CO2. Cellular adhesion influences electrical impedance which is converted into the cell index (CI) via RTCA software. Initial background measurements were recorded with 100 μL RPMI 1640 medium, followed by addition of 100 μL LNCaP cell suspension (10,000 cells/wells) for measurement of CI over time. Approximately 24 h after seeding, cells were treated with specified concentrations of drugs. Negative controls containing either 0.1% DMSO or untreated cells were also included. CI was transformed to normalised CI via the RTCA software to timepoint of treatment.

[2] = tested on: LNCaP WT cells; test: xCELLigence real-time proliferation of WT LNCaP cells; assay type: cell-based; conditions: for WT LNCaP growth, strongest effect: enzalutamide 1 μM and above; for WT LNCaP cell proliferation: enzalutamide 0.1-30 μM, all concentrations tested
Protocol: as §1, §2

[3] = tested on: P1-TET4D7 LNCaP cells; test: Real-time growth of P1 LNCaP cells with Tet-On inducible PDE4D7; assay type: cell-based; conditions: enzalutamide 10 μM, Tet-On doxycycline-induced PDE4D7
Protocol: as §1, §2
PDE4D7 (GenBank ID AF536976) sequence was first subcloned into lentivirus vectors with CMV (LVR-1001-pLV-CMV-PGK-Puro) and then into Tet-On inducible vector pLV-tet-on-3G-P2A-Puro, LNCaP-shRNA P1 cells were maintained in RPMI1640 medium supplemented with 10% (v/v) foetal bovine serum, 1% (v/v) L-Glutamine and 1% (v/v) penicillin/streptomycin, and infected with Tet-On inducible lentivirus at MOI=5-10 in the presence of 8 μg/ml polybrene. […]

[4] = tested on: cAMP production; conditions: Miller et al., 2013; cited from earlier work
[5] = tested on: PCa; conditions: He et al., 2019; cited from earlier work

SMILES | P1 LNCaP growth vs DMSO control ([1]; enzalutamide, higher concentrations up to 30 μM) | P1 LNCaP proliferation ([1]; enzalutamide, increasing doses 0-30 μM) | resistance to enzalutamide upon PDE4D7 knockdown ([1]; overall conclusion, 0-30 μM) | WT LNCaP growth, strongest effect [2] | WT LNCaP growth, strongest effect ([2]; listed as Enzalutamide) | WT LNCaP cell proliferation [2] | WT LNCaP cell proliferation ([2]; listed as Enzalutamide) | sensitivity to enzalutamide upon PDE4D7 re-expression [3] | growth inhibition of P1 cells ([1]; metformin, only at highest concentrations tested (0-25 μM)) | growth inhibition independent of PDE4D7 expression, P1 ([1]; summary statement, WT vs P1) | growth of WT cells ([2]; metformin, all concentrations (0-25 μM)) | growth inhibition independent of PDE4D7 expression, WT ([2]; summary statement, WT vs P1) | cAMP production [4] | overall survival/time to recurrence in PCa [5] | treatment/reduction of PCa tumours [5]
CNC(=O)c1ccc(N2C(=S)N(c3ccc(C#N)c(C(F)(F)F)c3)C(=O)C2(C)C)cc1F [enzalutamide] | significantly enhanced growth; also recorded: increased growth at higher concentrations | minimal reductions in cell proliferation | confers resistance to anti-androgens such as enzalutamide | least growth | most profound effects | significant decrease in WT LNCaP cell proliferation | significant decrease in WT LNCaP cell proliferation at all concentrations tested | restored sensitivity to enzalutamide; also recorded: rescued upon PDE4D7 re-expression |  |  |  |  |  |  | 
CN(C)C(=N)N=C(N)N [metformin, Metformin] |  |  |  |  |  |  |  |  | significant inhibition was only observed in P1 cells at highest concentrations tested | reduce tumor growth independent of PDE4D7 expression levels; also recorded: inhibit LNCaP cell growth irrespective of PDE4D7 expression status | significantly reducing growth of WT cells at all concentrations | reduce tumor growth independent of PDE4D7 expression levels; also recorded: inhibit LNCaP cell growth irrespective of PDE4D7 expression status | decrease CAMP production | enhance overall survival/time to recurrence | no evidence of it treating/reducing the PCa tumours itself

From patent US20260345624A1, “TREATMENT OF PROSTATE CANCER BY PROMOTING PDE4D7” (KONINKLIJKE PHILIPS N.V., priority 2022, published 2026)
